Reference: patent US20170305936A1, “SOLID STATE FORMS OF CRISABOROLE” (Pliva Hrvatska d.o.o., priority 2016, published 2017)

Experiments:
Format in all cases: physicochemical
[1] = Hygroscopicity (water absorption, European Pharmacopoeia 7.0, chapter 01/2008:51100); conditions: non-hygroscopic = less than 0.2% (w/w) water absorption after 24 h exposure to 25° C./80% RH
Experimental: As used herein the term non-hygroscopic in relation to crystalline Crisaborole refers to less than 0.2% (w/w) of water absorption after 24 h exposure to 25° C./80% RH, determined according to European Pharmacopoeia 7.0, chapter 01/2008:51100. Water can be for example atmospheric water.

[2] = Stability at high humidity levels
Experimental: Moreover, Form I is stable at high humidity levels (e.g. room temperature at 100% RH for 5-7 days), including after milling procedure (e.g. feeding pressure: 6.5 bar; grinding pressure: 6 bar; rotation speed: 300 rpm).

[3] = Mechanical stability (stress, re-analysis by PXRD)
Experimental: Sample after being powdered in a mortar and pestle is applied directly on a silicon plate holder. The X-ray powder diffraction pattern was measured with Philips X'Pert PRO X-ray powder diffractometer, equipped with Cu irradiation source=1.54184 Å (Angstrom), X'Celerator (2.022° 2θ) detector. Scanning parameters: angle range: 3-40 deg., step size 0.0167, time per step 37 s, continuous scan.

[4] = Thermodynamic (polymorphic) stability on storage, re-analysis by PXRD; conditions: for thermodynamic stability (conversion to any other solid state form, by XRPD): up to 50° C./80% RH
Experimental: Thermodynamic stability in relation to crystalline Crisaborole form I refers to less than 20%, 10%, 5%, 2%, 1%, or 0.5% conversion of crystalline Crisaborole form Ito any other solid state form of Crisaborole after exposure of form Ito conditions of up to 50° C./80% RH, e.g. 2-8° C., 25° C./60% RH, 40° C./75% RH for at least 1 month, as measured by XRPD. In some embodiments, the conversion is 1%-20%, 1%-10% or 1%-5%. […] Thermodynamic stability in relation to crystalline Crisaborole form II refers to less than 20%, 10%, 5%, 2%, 1%, or 0.5% conversion of crystalline Crisaborole form II to any other solid state form of Crisaborole after exposure of form II to conditions of up to 50° C./80% RH, e.g. 25° C./60% RH, 40° C./75% RH for at least 2 months, as measured by XRPD. In some embodiments, the conversion is 1%-20%, 1%-10% or 1%-5%. Sample after being powdered in a mortar and pestle is applied directly on a silicon plate holder. The X-ray powder diffraction pattern was measured with Philips X'Pert PRO X-ray powder diffractometer, equipped with Cu irradiation source=1.54184 Å (Angstrom), X'Celerator (2.022° 2θ) detector. Scanning parameters: angle range: 3-40 deg., step size 0.0167, time per step 37 s, continuous scan. Samples of Crisaborole form I were stored for 2 weeks at 25° C. 2-8° C., and for 1 month at different stress conditions: 25° C./60% RH, 40° C./75% RH, 50° C. and 50° C./80% RH.

Solubility in solvents = test: Solubility in solvents
[5] = Chemical stability on storage (impurity profile, HPLC)
Experimental: HPLC analysis was performed on instrument Agilent 1290, with experimental conditions being set as follows: Samples of Crisaborole form I were stored for 2 weeks at 25° C. 2-8° C., and for 1 month at different stress conditions: 25° C./60% RH, 40° C./75% RH, 50° C. and 50° C./80% RH.

## N#Cc1ccc(Oc2ccc3c(c2)COB3O)cc1 [Crisaborole form I, 5-(4-Cyanophenoxy)-1,3-dihydro-1-hydroxy-2,1-benzoxaborole]
[1]
  hygroscopicity: non-hygroscopic
[2]; after milling (feeding pressure 6.5 bar; grinding pressure 6 bar; rotation speed 300 rpm)
  stability at high humidity levels after milling procedure: stable
[2]; room temperature at 100% RH for 5-7 days
  stability at high humidity levels: stable
[3]; pressure of 9 tons on 132.67 mm^2 for 2 min
  mechanical stability, PXRD after stress: unchanged
[3]; pressure of 9 tons on 132.67 mm^2 for 2 min, listed as Form I
  mechanical stability, PXRD after stress: resistant to mechanical stress
[3]; strong grinding using mortar and pestle for 2 min
  mechanical stability, PXRD after stress: unchanged
[3]; strong grinding using mortar and pestle for 2 min, listed as Form I
  mechanical stability, PXRD after stress: resistant to mechanical stress
[3]; strong grinding with a drop of solvent (e.g. H2O, EtOH) using mortar and pestle for 2 min
  mechanical stability, PXRD after stress: unchanged
[3]; strong grinding with a drop of solvent (e.g. H2O, EtOH) using mortar and pestle for 2 min, listed as Form I
  mechanical stability, PXRD after stress: resistant to mechanical stress
[4]; 1 month at 25° C./60% RH
  PXRD after storage: unchanged
[4]; 1 month at 40° C./75% RH
  PXRD after storage: unchanged
[4]; 1 month at 50° C.
  PXRD after storage: unchanged
[4]; 1 month at 50° C./80% RH
  PXRD after storage: unchanged
[4]; 2 weeks at 2-8° C.
  PXRD after storage: unchanged
[4]; 2 weeks at 25° C.
  PXRD after storage: unchanged
[4]; e.g. 2-8° C., 25° C./60% RH, 40° C./75% RH for at least 1 month
  thermodynamic stability (conversion to any other solid state form, by XRPD): good thermodynamic stability
[4]; e.g. 2-8° C., 25° C./60% RH, 40° C./75% RH for at least 1 month, listed as Crystalline form I of Crisaborole
  thermodynamic stability (conversion to any other solid state form, by XRPD): thermodynamically stable
Solubility in solvents; N,N-dimethylformamide
  solubility in N,N-dimethylformamide: very soluble
Solubility in solvents; ethanol
  solubility in ethanol: freely soluble
Solubility in solvents; isopropanol
  solubility in isopropanol: freely soluble
Solubility in solvents; propylene glycol
  solubility in propylene glycol: freely soluble
[5]
  chemical stability: chemically stable
[5]; 1 month at 25° C./60% RH
  impurity profile after storage: no change in impurity profile
[5]; 1 month at 40° C./75% RH
  impurity profile after storage: no change in impurity profile
[5]; 1 month at 50° C.
  impurity profile after storage: no change in impurity profile
[5]; 1 month at 50° C./80% RH
  impurity profile after storage: no change in impurity profile
[5]; 2 weeks at 2-8° C.
  impurity profile after storage: no change in impurity profile
[5]; 2 weeks at 25° C.
  impurity profile after storage: no change in impurity profile

## N#Cc1ccc(Oc2ccc3c(c2)COB3O)cc1 [Crisaborole form II, 5-(4-Cyanophenoxy)-1,3-dihydro-1-hydroxy-2,1-benzoxaborole]
[2]; high humidity
  stability to polymorphic conversions under high humidity: stable
[4]; e.g. 25° C./60% RH, 40° C./75% RH for at least 2 months
  thermodynamic stability (conversion to any other solid state form, by XRPD): good thermodynamic stability
[4]; e.g. 25° C./60% RH, 40° C./75% RH for at least 2 months, listed as Crystalline form II of Crisaborole
  thermodynamic stability (conversion to any other solid state form, by XRPD): thermodynamically stable
